{"source": "patent US20160074373A1", "about": "“METHODS AND COMPOSITIONS FOR INHIBITING HUMAN COPPER TRAFFICKING PROTEINS ATOX1 AND CCS” (SHANGHAI INSTITUTE OF MATERIA MEDICA, CHINESE ACADEMY OF …, priority 2013, published 2016)", "key": {"[1]": {"tested_on": "AMPK phosphorylation and ACC1 phosphorylation", "test": "Western blot of AMPK and ACC1 phosphorylation", "assay_type": "cell-based", "conditions": "H1299 and K562 cells"}, "H1299 cancer cells [2]": {"tested_on": "H1299 cancer cells", "test": "8-OHdG levels by triple quadrupole mass spectrometry", "assay_type": "cell-based", "source_text": "FIG. 20A illustrates 8-OHdG levels in H1299 cancer cells determined by triple quadrupole mass spectrometry analysis. […] ."}, "H1299 cells [3]": {"tested_on": "H1299 cells", "test": "Intracellular ATP measurement"}, "K562 cells [4]": {"tested_on": "K562 cells", "test": "ROS production (DCFH-DA)", "assay_type": "cell-based", "conditions": "10 μM", "procedure": "(§1) Cells were treated with DMSO and DC_AC50 for 12 h and ROS generation was detected with DCFH-DA. Cells were incubated with 10 μM of DCFH-DA for 30 min at 37° C., washed twice with PBS, and immediately analyzed by a FACScan flow cytometer. The antioxidant NAC was treated with 3 mM concentration."}, "H1299 cells [5]": {"tested_on": "H1299 cells", "test": "ROS production (DCFH-DA)", "assay_type": "cell-based", "conditions": "10 μM", "procedure": "as §1"}, "H1299 cells [6]": {"tested_on": "H1299 cells", "test": "Oxygen consumption rate", "conditions": "in the presence or absence of oligomycin"}, "H1299 cancer cells [7]": {"tested_on": "H1299 cancer cells", "test": "Cell cycle arrest assay"}, "[8]": {"tested_on": "human PIG1 cell and human dermal fibroblast cell"}, "[9]": {"procedure": "An in vivo small molecule treatment experiment was performed to further test the efficacy of these compounds."}, "H1299 cells [10]": {"tested_on": "H1299 cells", "test": "H1299 xenograft", "conditions": "100 mg/kg/day i.p. for 21 days vs vehicle control"}, "K562 cells [11]": {"tested_on": "K562 cells", "test": "K562 xenograft", "conditions": "100 mg/kg/day i.p. for 21 days vs vehicle control"}, "H1299 cells [12]": {"tested_on": "H1299 cells", "test": "Lactate production"}, "H1299 cells [13]": {"tested_on": "H1299 cells", "test": "Apoptosis and caspase-3 activity"}, "[14]": {"tested_on": "SOD activity in H1299 cells", "test": "SOD activity assay", "conditions": "48 h treatment"}, "H1299 cells [15]": {"tested_on": "H1299 cells", "test": "14C-lipid synthesis from 14C-glucose", "assay_type": "cell-based"}, "[16]": {"tested_on": "cytochrome c oxidase (CCO) in K562 cells", "test": "Cytochrome c oxidase activity assay", "conditions": "compared to the control"}, "SOD1 and SOD2": {"tested_on": "SOD1 and SOD2", "test": "Western blot of SOD1 and SOD2 levels", "conditions": "H1299 and K562 cells"}, "human CCS (hCCS)": {"target": "T1, human CCS (hCCS) (Homo sapiens, UniProt O14618)", "T1 construct": "6-His (cleaved yes); made in house; host or cells: E. coli BL21 (pET28a)", "T1 sequence (O14618 1-274)": "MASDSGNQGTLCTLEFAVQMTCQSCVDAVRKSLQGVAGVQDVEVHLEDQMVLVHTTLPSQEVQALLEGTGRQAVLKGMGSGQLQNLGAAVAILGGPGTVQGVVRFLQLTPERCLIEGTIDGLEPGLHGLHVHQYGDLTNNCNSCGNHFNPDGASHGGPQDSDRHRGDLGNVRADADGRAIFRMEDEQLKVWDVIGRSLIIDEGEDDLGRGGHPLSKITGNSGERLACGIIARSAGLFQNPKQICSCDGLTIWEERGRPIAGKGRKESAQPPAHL", "test": "Intrinsic fluorescence Kd measurement", "assay_type": "binding", "conditions": "intrinsic tryptophan fluorescence", "procedure": "Based on this similarity, the intrinsic fluorescence of tyrosine for Atox1 and WD4 and tryptophan for hCCS upon addition of small molecules was monitored.\nThe binding assay was performed in an […]. […] The Atox, WD4 domain and hCCS (1 μM) were performed in 50 mM HEPES, 200 mM NaCl, 1 mM DTT (pH 7.1). […] Following this fluorescence results, the Kds of the small molecules was calculated."}, "[17]": {"tested_on": "SOD activity in K562 cells", "test": "SOD activity assay", "conditions": "48 h treatment"}, "H1299 cells [18]": {"tested_on": "H1299 cells", "test": "Glucose utilization assay"}, "K562 cancer cells [19]": {"tested_on": "K562 cancer cells", "test": "Cell cycle arrest assay"}, "[20]": {"tested_on": "Lung cancer H1299 cell, Head and neck cancer 212LN cell, Breast cancer MB231 cell", "test": "Cancer cell viability / proliferation"}, "HeLa cells": {"tested_on": "HeLa cells", "test": "Live cell copper(I) probe imaging of copper uptake", "conditions": "50 μM, added 10 min after CuSO4 (150 μM)"}, "H1299 cells [21]": {"tested_on": "H1299 cells", "test": "14C-RNA synthesis from 14C-glucose"}, "K562 cells [22]": {"tested_on": "K562 cells", "test": "Intracellular ATP measurement"}, "K562 cancer cells [23]": {"tested_on": "K562 cancer cells", "test": "8-OHdG levels by triple quadrupole mass spectrometry", "assay_type": "cell-based", "source_text": "FIG. 20B illustrates 8-OHdG levels in K562 cancer cells determined by triple quadrupole mass spectrometry analysis. […] ."}, "[24]": {"tested_on": "cytochrome c oxidase (CCO) in H1299 cells", "test": "Cytochrome c oxidase activity assay", "conditions": "compared to the control"}}, "note": "Where “and” joins values, the source holds several entries; their conditions need not be identical. Equal values may be shown once."}
{"smiles": "Nc1c(C(=O)Nc2c(F)cc(F)cc2Br)sc2nc3c(cc12)CCC3", "note": "[Compound 50, 3-amino-N-(2-bromo-4,6-difluorophenyl)-6,7-dihydro-5H-cyclopenta[b]thieno[3,2-e]pyridine-2-carboxamide]", "values": [{"measurement": "ACC1 phosphorylation", "setting": "[1]", "result": "increased"}, {"measurement": "AMPK phosphorylation", "setting": "[1]", "result": "increased"}, {"measurement": "8-OHdG levels", "setting": "H1299 cancer cells [2]", "result": "increased"}, {"measurement": "cellular ATP levels", "setting": "H1299 cells [3]", "result": "significantly reduced"}, {"measurement": "cellular ROS level", "setting": "K562 cells [4]", "result": "increased cellular ROS level"}, {"measurement": "cellular ROS level", "setting": "H1299 cells [5]", "result": "increased cellular ROS level"}, {"measurement": "oxygen consumption rate", "setting": "H1299 cells [6]", "result": "significantly decreased"}, {"measurement": "cell cycle", "setting": "H1299 cancer cells [7]", "result": "G2/M phase cell cycle arrest"}, {"measurement": "effect on noncancerous cell lines", "setting": "[8]", "result": "minimum effects"}, {"measurement": "viability of normal cells", "setting": "[8]; 72 hours, highest concentration tested 10 μM", "result": "not harmful"}, {"measurement": "GRAN", "setting": "[9]; mouse, in vivo, 100 mg/kg/day", "result": "1.58 ± 1.4 ×10^3/μL"}, {"measurement": "HCT", "setting": "[9]; mouse, in vivo, 100 mg/kg/day", "result": "30.85 ± 4.879", "unit": "%"}, {"measurement": "HGB", "setting": "[9]; mouse, in vivo, 100 mg/kg/day", "result": "7.45 ± 1.768", "unit": "g/dL"}, {"measurement": "LYM", "setting": "[9]; mouse, in vivo, 100 mg/kg/day", "result": "4.74 ± 1.556 ×10^3/μL"}, {"measurement": "MCH", "setting": "[9]; mouse, in vivo, 100 mg/kg/day", "result": "13.6 ± 1.273", "unit": "pg"}, {"measurement": "MCHC", "setting": "[9]; mouse, in vivo, 100 mg/kg/day", "result": "24 ± 1.98", "unit": "g/dL"}, {"measurement": "MCV", "setting": "[9]; mouse, in vivo, 100 mg/kg/day", "result": "56.75 ± 0.919", "unit": "fL"}, {"measurement": "MONO", "setting": "[9]; mouse, in vivo, 100 mg/kg/day", "result": "0.44 ± 0.17 ×10^3/μL"}, {"measurement": "PLT", "setting": "[9]; mouse, in vivo, 100 mg/kg/day", "result": "742 ± 684.5 ×10^3/μL"}, {"measurement": "RBC", "setting": "[9]; mouse, in vivo, 100 mg/kg/day", "result": "5.43 ± 0.778 ×10^6/μL"}, {"measurement": "RDWa", "setting": "[9]; mouse, in vivo, 100 mg/kg/day", "result": "21.5 ± 4.667", "unit": "%"}, {"measurement": "WBC", "setting": "[9]; mouse, in vivo, 100 mg/kg/day", "result": "6.89 ± 3.125 ×10^3/μL"}, {"measurement": "MPV", "setting": "[9]; nude mice, 100 mg/kg/day, mean", "result": "6.35 ± 0.495", "unit": "fL"}, {"measurement": "well-tolerated dose", "setting": "[9]; nude, mouse, in vivo, ip, 4 weeks", "result": 100, "unit": "mg/kg/day"}, {"measurement": "tumor growth and size", "setting": "H1299 cells [10]", "result": "significantly decreased tumor growth and size"}, {"measurement": "tumor growth and size", "setting": "K562 cells [11]", "result": "significantly decreased tumor growth and size"}, {"measurement": "cellular level of lactate", "setting": "H1299 cells [12]", "result": "no noticeable changes"}, {"measurement": "apoptosis", "setting": "H1299 cells [13]", "result": "didn't noticeably induce apoptosis"}, {"measurement": "caspase-3 activity", "setting": "H1299 cells [13]", "result": "does not noticeably affect"}, {"measurement": "SOD activity", "setting": "[14]", "result": "noticeably decreased"}, {"measurement": "lipid synthesis", "setting": "H1299 cells [15]", "result": "significant decreases"}, {"measurement": "CCO activity", "setting": "[16]", "result": "significantly lowered"}, {"measurement": "SOD2 expression level", "setting": "SOD1 and SOD2", "result": "Reduced expression"}, {"measurement": "Kd", "setting": "human CCS (hCCS)", "result": "8 µM and ~8.1 µM"}, {"measurement": "SOD activity", "setting": "[17]", "result": "noticeably decreased"}, {"measurement": "glucose uptake", "setting": "H1299 cells [18]", "result": "no noticeable changes"}, {"measurement": "cell cycle", "setting": "K562 cancer cells [19]", "result": "G2/M phase cell cycle arrest"}, {"measurement": "cell death in cancer cells", "setting": "[20]; H1299, 212LN, MB231, increasing doses", "result": "induce cell death"}, {"measurement": "cancer cell proliferation", "setting": "[20]; dose-dependent", "result": "high efficiency in inhibiting cancer cell proliferation"}, {"measurement": "copper uptake", "setting": "HeLa cells", "result": "reduced copper uptake"}, {"measurement": "glucose-dependent RNA synthesis", "setting": "H1299 cells [21]", "result": "no noticeable changes"}, {"measurement": "cellular ATP levels", "setting": "K562 cells [22]", "result": "significantly reduced"}, {"measurement": "8-OHdG levels", "setting": "K562 cancer cells [23]", "result": "increased"}, {"measurement": "CCO activity", "setting": "[24]", "result": "significantly lowered"}]}
